The values that follow are results of earlier work, collected in US9255295B2, “Method for evaluating the sensitizing potential of a test compound” (IMMUNOSEARCH, priority 2010, dated 2016).

For the data set the following is noted: official classification: non-sensitizer, irritant, or sensitizing Extreme/Strong/Moderate/Weak; cited from earlier work.

As for `N#CCCC(Br)(C#N)CBr` (centres unmarked) [2-Bromo-2-(bromomethyl)glutaronitrile], the Class result was “S”.

In the case of `O=CCCCC=O` [Glutaraldehyde], the Class result is reported as “S”.
